Measurements: patent US12521440B2, “Degradation of bruton's tyrosine kinase (BTK) by conjugation of BTK inhibitors with E3 ligase ligand and methods of use” (BeOne Medicines I GmbH, priority 2021, dated 2026)

Assays:
BTK = target: T1, BTK (Homo sapiens, UniProt Q06187); test: BTK degradation in TMD-8 cells (HTRF assay); format: cell-based; conditions: 6 h treatment, HTRF BTK degradation IC50 (DC50)
T1 construct: endogenous in cells; host or cells: TMD-8 cells
Method: TMD-8 cells were treated with compounds diluted in 0.2% DMSO, dilution was done according to the following protocol: (1) making 500×stock solution in DMSO from 1 mM by 6-fold dilution, total 8 doses were included; (2) making 2×solution in cell culture medium by transferring 0.5 μl 500×stock solution into 125 μl medium; (3) adding 15 μl of 2×solution to cells for incubation of 6 h.
After 6 h treatment, 10 μl 4×lysis buffer was added to each well; the plate was sealed and incubated for 30 min at room temperature on a plate shaker; Once the cells was lysed, 16 μL of cell lysate were transferred to a PE 384-well HTRF detection plate; 4 μL of pre-mixed HTRF antibodies were added to each well; the plate was covered with a plate sealer, and then spinned at 1000 rpm for 1 min, then incubated overnight at room temperature; the results were read on BMG PheraStar with HTRF protocol (337 nm-665 nm-620 nm).
(§1) The IC50 (DC50) value of a compound can be obtained by fitting the following equation Y=Bottom+(TOP−Bottom)/(1+((IC50/X)^hillslope)) wherein, X and Y are known values, and IC50, Hillslope, Top and Bottom are the parameters obtained by fitting with software. Y is the inhibition percentage (calculated from the equation), X is the concentration of the compound; IC50 is the concentration of the compound when the 50% inhibition is reached. The smaller the IC50 value is, the stronger the inhibitory ability of the compound is. Vice versa, the higher the IC50 value is, the weaker the ability the inhibitory ability of the compound is; Hillslope represents the slope of the fitted curve, generally around 1*; Bottom represents the minimum value of the curve obtained by data fitting, which is generally 0%±20%; Top represents the maximum value of the curve obtained by data fitting, which is generally 100%±20%. The experimental data were fitted by calculating and analyzing with Dotmatics data analysis software. HEK-293 Cell Treatment

HEK-293 cells = test: HEK-293 cytotoxicity detection (CellTiter-Glo); format: cell-based; conditions: Homo sapiens, 72 h incubation, read-out: HEK293
Text: as §1
HEK-293 cells were treated with compounds diluted in 0.2% DMSO, dilution was done according to the following protocol: (1) making 500×stock solution in DMSO from 5 mM by 4-fold dilution, total 8 doses were included; (2) making 2×solution in cell culture medium by transferring 0.5 ul 500×stock solution into 125 ul medium; (3) adding 50 ul of 2×solution to cells for incubation of 72 h.
25 μl of the CellTiter-Glo® Reagent [(Promega)—Cat No. G7572] was added to each well in the 96-well plate. The contents were mixed for 2 minutes on an orbital shaker to induce cell lysis. The plate was then allowed to incubate at room temperature for 10 minutes to stabilize luminescent signal. Luminescence was recorded on BMG PheraStar with luminescence protocol.
as §1, with “IC50” for “IC50 (DC50)”, “Wherein,” for “wherein,”, “software.” for “software. HEK-293 Cell Treatment”

T1 sequence (Q06187 whole entry): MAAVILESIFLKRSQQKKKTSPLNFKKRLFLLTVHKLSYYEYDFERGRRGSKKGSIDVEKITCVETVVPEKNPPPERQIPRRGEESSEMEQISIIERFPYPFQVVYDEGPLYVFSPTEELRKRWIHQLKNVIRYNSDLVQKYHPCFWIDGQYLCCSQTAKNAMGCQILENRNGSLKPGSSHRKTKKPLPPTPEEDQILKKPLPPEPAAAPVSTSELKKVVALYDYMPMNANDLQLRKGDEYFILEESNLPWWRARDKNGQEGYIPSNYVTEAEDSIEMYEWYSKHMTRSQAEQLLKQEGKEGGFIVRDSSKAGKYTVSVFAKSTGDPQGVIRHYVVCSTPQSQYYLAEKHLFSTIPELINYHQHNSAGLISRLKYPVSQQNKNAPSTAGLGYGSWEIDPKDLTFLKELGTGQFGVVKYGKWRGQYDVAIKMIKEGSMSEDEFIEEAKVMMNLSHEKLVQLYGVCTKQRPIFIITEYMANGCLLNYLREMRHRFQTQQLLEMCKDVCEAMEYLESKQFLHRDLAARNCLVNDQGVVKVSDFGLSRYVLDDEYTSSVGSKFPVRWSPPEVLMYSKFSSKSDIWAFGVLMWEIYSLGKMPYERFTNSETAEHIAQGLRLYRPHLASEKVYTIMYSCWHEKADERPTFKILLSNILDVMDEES

Compound | DC50 (BTK) | IC50 (HEK-293 cells)
Cc1cc(-c2cc(Nc3ccc(N4CC(CN5CCN(c6ccc(N7CCC(=O)NC7=O)cc6)CC5)C4)cn3)ncn2)ccc1[C@@H](C)NC(=O)c1nc(C(C)(C)C)no1 [Example 20, (R)-3-(tert-butyl)-N-(1-(4-(6-((5-(3-((4-(4-(2,4-dioxotetrahydropyrimidin-1(2H)-yl)phenyl)piperazin-1-yl)methyl)azetidin-1-yl)pyridin-2-yl)amino)pyrimidin-4-yl)-2-methylphenyl)ethyl)-1,2,4-oxadiazole-5-carboxamide] | 1.23 nM | > 10000 nM
Cc1cc(-c2cc(Nc3ccc(N4CCC(CN5CCN(c6ccc(N7CCC(=O)NC7=O)cc6)CC5)CC4)cn3)ncn2)ccc1[C@@H](C)NC(=O)c1nc(C(C)(C)C)no1 [Example 21, (R)-3-(tert-butyl)-N-(1-(4-(6-((5-(4-((4-(4-(2,4-dioxotetrahydropyrimidin-1(2H)-yl)phenyl)piperazin-1-yl)methyl)piperidin-1-yl)pyridin-2-yl)amino)pyrimidin-4-yl)-2-methylphenyl)ethyl)-1,2,4-oxadiazole-5-carboxamide] | 2.11 nM | > 10000 nM
Cc1cc(-c2cc(Nc3ccc(N4CCN(CC5CN(c6ccc(N7CCC(=O)NC7=O)cc6)C5)CC4)cn3)ncn2)ccc1[C@@H](C)NC(=O)c1nc(C(C)(C)C)no1 [Example 22, (R)-3-(tert-butyl)-N-(1-(4-(6-((5-(4-((1-(4-(2,4-dioxotetrahydropyrimidin-1(2H)-yl)phenyl)azetidin-3-yl)methyl)piperazin-1-yl)pyridin-2-yl)amino)pyrimidin-4-yl)-2-methylphenyl)ethyl)-1,2,4-oxadiazole-5-carboxamide] | 1.58 nM | > 10000 nM
Cc1cc(-c2cc(Nc3ccc(C4CN(CC5CCN(c6ccc(N7CCC(=O)NC7=O)cc6)CC5)C4)cn3)ncn2)ccc1[C@@H](C)NC(=O)c1nc(C(C)(C)C)no1 [Example 23, (R)-3-(tert-butyl)-N-(1-(4-(6-((5-(1-((1-(4-(2,4-dioxotetrahydropyrimidin-1(2H)-yl)phenyl)piperidin-4-yl)methyl)azetidin-3-yl)pyridin-2-yl)amino)pyrimidin-4-yl)-2-methylphenyl)ethyl)-1,2,4-oxadiazole-5-carboxamide] | 1.14 nM | 2900 nM
Cc1cc(-c2cc(Nc3ccc(N4CCN(C[C@@H]5CCN(c6ccc(N7CCC(=O)NC7=O)cc6)C5)CC4)cn3)ncn2)ccc1[C@@H](C)NC(=O)c1nc(C(C)(C)C)no1 [Example 24, 3-(tert-butyl)-N—((R)-1-(4-(6-((5-(4-(((S)-1-(4-(2,4-dioxotetrahydropyrimidin-1(2H)-yl)phenyl)pyrrolidin-3-yl)methyl)piperazin-1-yl)pyridin-2-yl)amino)pyrimidin-4-yl)-2-methylphenyl)ethyl)-1,2,4-oxadiazole-5-carboxamide] | 5.63 nM | > 10000 nM
Cc1cc(-c2cc(Nc3ccc(N4CCN(C(=O)C5CN(c6ccc(N7CCC(=O)NC7=O)cc6)C5)CC4)cn3)ncn2)ccc1[C@@H](C)NC(=O)c1nc(C(C)(C)C)no1 [Example 25, (R)-3-(tert-butyl)-N-(1-(4-(6-((5-(4-(1-(4-(2,4-dioxotetrahydropyrimidin-1(2H)-yl)phenyl)azetidine-3-carbonyl)piperazin-1-yl)pyridin-2-yl)amino)pyrimidin-4-yl)-2-methylphenyl)ethyl)-1,2,4-oxadiazole-5-carboxamide] | 0.935 nM | > 10000 nM
Cc1cc(-c2cc(Nc3ccc(N4CCN(C(=O)C5CN(c6ccc(C7CCC(=O)NC7=O)cc6)C5)CC4)cn3)ncn2)ccc1[C@@H](C)NC(=O)c1nc(C(C)(C)C)no1 (stereo partly drawn) [Example 26, 3-(tert-butyl)-N-((1R)-1-(4-(6-((5-(4-(1-(4-(2,6-dioxopiperidin-3-yl)phenyl)azetidine-3-carbonyl)piperazin-1-yl)pyridin-2-yl)amino)pyrimidin-4-yl)-2-methylphenyl)ethyl)-1,2,4-oxadiazole-5-carboxamide] | 0.899 nM | > 10000 nM
Cc1cc(-c2cc(Nc3ccc(N4CCN(C(=O)C5CN(c6cc(F)c(C7CCC(=O)NC7=O)c(F)c6)C5)CC4)cn3)ncn2)ccc1[C@@H](C)NC(=O)c1nc(C(C)(C)C)no1 (stereo partly drawn) [Example 27, 3-(tert-butyl)-N-((1R)-1-(4-(6-((5-(4-(1-(4-(2,6-dioxopiperidin-3-yl)-3,5-difluorophenyl)azetidine-3-carbonyl)piperazin-1-yl)pyridin-2-yl)amino)pyrimidin-4-yl)-2-methylphenyl)ethyl)-1,2,4-oxadiazole-5-carboxamide] | 3.57 nM | > 10000 nM

Further lines, with some results ahead:

DC50 (BTK) | Compound | IC50 (HEK-293 cells)
1.66 nM | Cc1cc(-c2cc(Nc3ccc(N4CCN(C(=O)C5CCN(c6ccc(N7CCC(=O)NC7=O)cc6)CC5)CC4)cn3)ncn2)ccc1[C@@H](C)NC(=O)c1nc(C(C)(C)C)no1 [Example 28, (R)-3-(tert-butyl)-N-(1-(4-(6-((5-(4-(1-(4-(2,4-dioxotetrahydropyrimidin-1(2H)-yl)phenyl)piperidine-4-carbonyl)piperazin-1-yl)pyridin-2-yl)amino)pyrimidin-4-yl)-2-methylphenyl)ethyl)-1,2,4-oxadiazole-5-carboxamide] | > 10000 nM
0.836 nM | Cc1cc(-c2cc(Nc3ccc(N4CCN(C(=O)C5CCN(c6ccc(N7CCC(=O)NC7=O)cc6)C5)CC4)cn3)ncn2)ccc1[C@@H](C)NC(=O)c1nc(C(C)(C)C)no1 (stereo partly drawn) [Example 29, 3-(tert-butyl)-N-((1R)-1-(4-(6-((5-(4-(1-(4-(2,4-dioxotetrahydropyrimidin-1(2H)-yl)phenyl)pyrrolidine-3-carbonyl)piperazin-1-yl)pyridin-2-yl)amino)pyrimidin-4-yl)-2-methylphenyl)ethyl)-1,2,4-oxadiazole-5-carboxamide] | > 10000 nM
0.539 nM | Cc1cc(-c2cc(Nc3ccc(N4CC5(CN(CC6CCN(c7ccc(N8CCC(=O)NC8=O)cc7)CC6)C5)C4)cn3)ncn2)ccc1[C@@H](C)NC(=O)c1nc(C(C)(C)C)no1 [Example 30, (R)-3-(tert-butyl)-N-(1-(4-(6-((5-(6-((1-(4-(2,4-dioxotetrahydropyrimidin-1(2H)-yl)phenyl)piperidin-4-yl)methyl)-2,6-diazaspiro [3.3]heptan-2-yl)pyridin-2-yl)amino)pyrimidin-4-yl)-2-methylphenyl)ethyl)-1,2,4-oxadiazole-5-carboxamide] | 1000 nM
1.99 nM | Cc1cc(-c2cc(Nc3ccc(N4CCC5(CCN(CC6CCN(c7ccc(N8CCC(=O)NC8=O)cc7)CC6)C5)CC4)cn3)ncn2)ccc1[C@@H](C)NC(=O)c1nc(C(C)(C)C)no1 [Example 31, (R)-3-(tert-butyl)-N-(1-(4-(6-((5-(2-((1-(4-(2,4-dioxotetrahydropyrimidin-1(2H)-yl)phenyl)piperidin-4-yl)methyl)-2,8-diazaspiro[4.5]decan-8-yl)pyridin-2-yl)amino)pyrimidin-4-yl)-2-methylphenyl)ethyl)-1,2,4-oxadiazole-5-carboxamide] | 1870 nM
1.73 nM | Cc1cc(-c2cc(Nc3ccc(N4CCC5(CC4)CN(CC4CCN(c6ccc(N7CCC(=O)NC7=O)cc6)CC4)C5)cn3)ncn2)ccc1[C@@H](C)NC(=O)c1nc(C(C)(C)C)no1 [Example 32, (R)-3-(tert-butyl)-N-(1-(4-(6-((5-(2-((1-(4-(2,4-dioxotetrahydropyrimidin-1(2H)-yl)phenyl)piperidin-4-yl)methyl)-2,7-diazaspiro [3.5]nonan-7-yl)pyridin-2-yl)amino)pyrimidin-4-yl)-2-methylphenyl)ethyl)-1,2,4-oxadiazole-5-carboxamide] | 1910 nM
